From patent publication US20190105367A1, “ANTIMICROBIAL 4-OXOQUINOLIZINES” (Emergent Product Development Gaithersburg Inc., priority 2011, published 2019)
≈ marks a conversion by molar mass, not a printed value. Read-outs that look alike come from different tables or passages of the source.

Assays:
A. baumannii A14 [1] = experiment: MIC without and with sub-inhibitory polymyxin B (Example 4); format: cell-based, Acinetobacter baumannii; conditions: 1st experiment
A. baumannii A489 [2] = experiment: as above; format: cell-based, Acinetobacter baumannii; conditions: for MIC without PB/MIC + PB: A. baumannii A489; for MIC: Acinetobacter baumannii
A. baumannii A489 [3] = experiment: Preliminary MBC without and with sub-inhibitory polymyxin B (Example 4); format: cell-based, Acinetobacter baumannii; conditions: Acinetobacter baumannii, preliminary MBC
A. baumannii A473 [4] = experiment: as above; format: cell-based, Acinetobacter baumannii; conditions: A. baumannii A473, +0.06 μg/ml PB, 2nd experiment
Summary of the method: (§1)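 Read-out: the minimum concentration at which colonies were reduced by ca. 90% relative to positive control, usually seen as isolated colonies or a clear plate. Plates had been kept 18-20 hours at 37° C beforehand.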

A. baumannii NCTC 13301 [5] = experiment: as above; format: cell-based, Acinetobacter baumannii; conditions: Acinetobacter baumannii
Summary of the method: as §1

A. baumannii A390 = experiment: as above; format: cell-based, Acinetobacter baumannii; conditions: Acinetobacter baumannii, A390, A. baumannii A390, +0.06 μg/ml PB, 2nd experiment
Summary of the method: as §1

A. baumannii A14 [6] = experiment: as above; format: cell-based, Acinetobacter baumannii; conditions: A. baumannii A14, +0.06 μg/ml PB, 2nd experiment
Summary of the method: as §1

A. baumannii A401 [7] = experiment: MIC without and with sub-inhibitory polymyxin B (Example 4); format: cell-based, Acinetobacter baumannii; conditions: A baumannii A 401; ratio, PB 0.06 μg/ml; 1st experiment
A. baumannii J2 [8] = experiment: as above; format: cell-based, Acinetobacter baumannii; conditions: for MIC without PB/MIC + PB: A. baumannii J2; for MIC: Acinetobacter baumannii
A. baumannii A387 [9] = experiment: as above; format: cell-based, Acinetobacter baumannii; conditions: A. baumannii A387
A. baumannii NCTC 13301 [10] = experiment: as above; format: cell-based, Acinetobacter baumannii
A. baumannii ATCC 19606 = experiment: as above; format: cell-based, Acinetobacter baumannii; conditions: A. baumannii ATCC 19606
A. baumannii A14 [11] = experiment: Preliminary MBC without and with sub-inhibitory polymyxin B (Example 4); format: cell-based, Acinetobacter baumannii; conditions: A. baumannii A14; +0.06 μg/ml polymyxin B; preliminary MBC; 1st experiment
[12] = test system: Acinetobacter sp. (H064200250); experiment: MIC without and with sub-inhibitory polymyxin B (Example 4); format: cell-based
A. baumannii A329 [13] = experiment: Preliminary MBC without and with sub-inhibitory polymyxin B (Example 4); format: cell-based, Acinetobacter baumannii; conditions: A. baumannii A329, +0.06 μg/ml PB, 2nd experiment
A. baumannii A329 [14] = experiment: MIC without and with sub-inhibitory polymyxin B (Example 4); format: cell-based, Acinetobacter baumannii; conditions: A. baumannii A329; +0.06 μg/ml PB; 2nd experiment
A. baumannii NCTC 13301 [15] = experiment: as above; format: cell-based, Acinetobacter baumannii; conditions: +[…] PB, 2nd experiment
A. baumannii A401 [16] = experiment: Preliminary MBC without and with sub-inhibitory polymyxin B (Example 4); format: cell-based, Acinetobacter baumannii; conditions: Acinetobacter baumannii
[17] = test system: Acinetobacter sp. (H064200250); experiment: as above; format: cell-based; conditions: Acinetobacter spp. H064200250 (OXA51); +[…] PB; preliminary MBC; 2nd experiment
Summary of the method: as §1

A. baumannii A387 [18] = experiment: as above; format: cell-based, Acinetobacter baumannii; conditions: A. baumannii A387, +0.06 μg/ml PB, 2nd experiment
[19] = test system: strains of A. baumannii and one strain of Acinetobacter sp.; experiment: MIC with sub-inhibitory concentrations (0.25x MIC) of polymyxin B, panel of Acinetobacter strains (Example 4); format: cell-based
A. baumannii A473 [20] = experiment: MIC without and with sub-inhibitory polymyxin B (Example 4); format: cell-based, Acinetobacter baumannii; conditions: A. baumannii A473; +0.06 μg/ml PB; 2nd experiment
A. baumannii J2 [21] = experiment: Preliminary MBC without and with sub-inhibitory polymyxin B (Example 4); format: cell-based, Acinetobacter baumannii; conditions: Acinetobacter baumannii, preliminary MBC
[22] = ratio, PB 0.06 μg/ml, 1st experiment

COc1c(N2C[C@@H]3CCCN[C@@H]3C2)c(F)cc2c(=O)c(C(=O)O)cn(C3CC3)c12 [Moxifloxacin]
MIC +0.06 μg/ml PB (A. baumannii A14 [1]; +0.06 μg/ml polymyxin B): 32 µg/mL | MIC without PB/MIC + PB (A. baumannii A14 [1]; ratio, PB 0.06 μg/ml): 1 | MIC without PB/MIC + PB (A. baumannii A489 [2]; +[…] PB, 2nd experiment): 4 | MIC without PB/MIC + PB (A. baumannii A489 [2]; ratio, PB […], 1st experiment): 4 | MIC (A. baumannii A489 [2]; A489, A. baumannii A489, +[…] PB, 2nd experiment, read-out: MIC): 4 µg/mL (≈ 9.96 µM) | MIC (A. baumannii A489 [2]; A489, read-out: MIC +[…] PB, A. baumannii A489, +[…] polymyxin B, 1st experiment): 4 µg/mL (≈ 9.96 µM) | MBC (A. baumannii A489 [3]; A489, A. baumannii A489, +[…] PB, 2nd experiment): 4 µg/mL (≈ 9.96 µM) | MBC (A. baumannii A489 [3]; A489, read-out: MBC +[…] PB, A. baumannii A489, +[…] polymyxin B, 1st experiment): 4 µg/mL (≈ 9.96 µM) | MBC (A. baumannii A473 [4]): 8 µg/mL (≈ 19.9 µM) | MBC (A. baumannii NCTC 13301 [5]; NCTC13301, A. baumannii NCTC 13301, +[…] PB, preliminary MBC, 2nd experiment): 8 µg/mL (≈ 19.9 µM) | MBC (A. baumannii NCTC 13301 [5]; NCTC13301, read-out: MBC +[…] PB): 128 µg/mL (≈ 319 µM) | MBC (A. baumannii A390): 8 µg/mL (≈ 19.9 µM) | MBC (A. baumannii A14 [6]): 16 µg/mL (≈ 39.9 µM) | MIC without PB/MIC + PB (A. baumannii A401 [7]): 2 | MIC without PB/MIC + PB (A. baumannii J2 [8]; +[…] PB, 2nd experiment): 4 | MIC without PB/MIC + PB (A. baumannii J2 [8]; ratio, PB […], 1st experiment): 4 | MIC (A. baumannii J2 [8]; J2, A. baumannii J2, +[…] PB, 2nd experiment, read-out: MIC): 8 µg/mL (≈ 19.9 µM) | MIC (A. baumannii J2 [8]; J2, read-out: MIC +[…] PB, A. baumannii J2, +[…] polymyxin B, 1st experiment): 8 µg/mL (≈ 19.9 µM) | MIC without PB/MIC + PB (A. baumannii A387 [9]; +0.06 μg/ml PB, 2nd experiment): 1 | MIC without PB/MIC + PB (A. baumannii A387 [9]; [22]): 1 | MIC without PB/MIC + PB (A. baumannii NCTC 13301 [10]; A. baumannii NCTC 13301, ratio, PB […], 1st experiment): 1 | MIC (A. baumannii NCTC 13301 [10]; Acinetobacter baumannii, NCTC13301, read-out: MIC +[…] PB): 128 µg/mL (≈ 319 µM) | MIC without PB/MIC + PB (A. baumannii ATCC 19606; +0.06 μg/ml PB, 2nd experiment): 2 | MIC without PB/MIC + PB (A. baumannii ATCC 19606; [22]): 1 | MBC +0.06 μg/ml PB (A. baumannii A14 [11]): 32 µg/mL | MIC without PB/MIC + PB ([12]; Acinetobacter spp. H064200250 (OXA51), +[…] PB, 2nd experiment): 1 | MIC without PB/MIC + PB ([12]; Acinetobacter spp. H064200250, ratio, PB […], 1st experiment): 1 | MBC (A. baumannii A329 [13]): 32 µg/mL (≈ 79.7 µM) | MIC without PB/MIC + PB (A. baumannii A329 [14]): 1 | MIC without PB/MIC + PB (A. baumannii NCTC 13301 [15]; A. baumannii NCTC 13301): 8 | MIC (A. baumannii NCTC 13301 [15]; Acinetobacter baumannii, NCTC13301, A. baumannii NCTC 13301, read-out: MIC): 8 µg/mL (≈ 19.9 µM) | MBC (A. baumannii A401 [16]; A401, A baumannii A 401, +0.06 μg/ml PB, 2nd experiment): 8 µg/mL (≈ 19.9 µM) | MBC (A. baumannii A401 [16]; A401, read-out: MBC +0.06 μg/ml PB, A baumannii A 401, +0.06 μg/ml polymyxin B, 1st experiment): 8 µg/mL | MBC [17]: 16 µg/mL (≈ 39.9 µM) | MBC (A. baumannii A387 [18]): 8 µg/mL (≈ 19.9 µM) | Range ratios MIC without PB/MIC with PB Oct. 1, 2008 n = 8 ([19]; 1st experiment): 0.5-4 | MIC range with PB (0.25x MIC) Oct. 1, 2008 n = 8 ([19]; 1st experiment, […] polymyxin B, ATCC 19606, A329, A390 and A473 not taken): 4 to 128 µg/mL | Range ratios MIC without PB/MIC with PB Oct. 14, 2008 n = 11 ([19]; 2nd experiment): 1-8 | MIC range with PB (0.25x MIC) Oct. 14, 2008 n = 11 ([19]; 2nd experiment, 0.06 μg/ml polymyxin B, all strains except the ATCC strain): 4 to 32 µg/mL | MIC without PB/MIC + PB (A. baumannii A473 [20]): 1 | MBC (A. baumannii J2 [21]; J2, A. baumannii J2, +[…] PB, 2nd experiment): 8 µg/mL (≈ 19.9 µM) | MBC (A. baumannii J2 [21]; J2, read-out: MBC +[…] PB, A. baumannii J2, +[…] polymyxin B, 1st experiment): 8 µg/mL (≈ 19.9 µM)
